Patent publication US9549560B2, “Pesticidal compositions and related methods” (DOW AGROSCIENCES LLC, priority 2013, dated 2017)

What was measured:
[1] = test system: Green Peach Aphid (Myzus persicae); test: Bioassay for Green Peach Aphid (GPA) (MYZUPE), foliar spray on cabbage seedlings; type: in vivo; conditions: 72 h, 200 ppm foliar spray, graded after three days, Abbott corrected % control, read-out: % Control (or Mortality) rating, GPA
Method: Cabbage seedlings grown in 3-inch pots, with 2-3 small (3-5 cm) true leaves, were used as test substrate. The seedlings were infested with 20-50 GPA (wingless adult and nymph stages) one day prior to chemical application. Four pots with individual seedlings were used for each treatment. Test compounds (2 mg) were dissolved in 2 mL of acetone/methanol (1:1) solvent, forming stock solutions of 1000 ppm test compound. The stock solutions were diluted 5× with 0.025% Tween 20 in H2O to obtain the solution at 200 ppm test compound. A hand-held aspirator-type sprayer was used for spraying a solution to both sides of […] leaves until runoff. Reference plants (solvent check) were sprayed with the diluent only containing 20% by volume of acetone/methanol (1:1) solvent. Treated plants were held in a holding room for three days at approximately 25° C. and ambient relative humidity (RH) prior to grading. Evaluation was conducted by counting the number of live aphids per plant under a microscope. Percent control was measured by using Abbott's correction formula (W. S. Abbott, “A Method of Computing the Effectiveness of an Insecticide,” J. Econ. Entomol. 18 (1925), pp. 265-267) as follows. Corrected % Control=100*(X−Y)/X
X=No. of live aphids on solvent check plants and
Y=No. of live aphids on treated plants
(§1) Biological Data for Green Peach Aphid (GPA) (MYZUPE) and Sweetpotato Whitefly-crawler (WF) (BEMITA)” (See Table Section).

[2] = test system: Sweetpotato Whitefly-Crawler (Bemisia tabaci); test: Insecticidal test for Sweetpotato Whitefly-Crawler (WF) (BEMITA) in foliar spray assay on cotton plants; type: in vivo; conditions: 216 h, 200 ppm foliar spray, graded after 9 days, Abbott corrected % control, read-out: % Control (or Mortality) rating, WF
Method: Cotton plants (Gossypium hirsutum) grown in 3-inch pots, with 1 small (4-5 cm) true leaves, were used as test substrate. The plants were infested with 200-400 whitefly eggs 4-5 days prior to chemical application. Four pots with individual plants were used for each treatment. Test compounds (2 mg) were dissolved in 1 mL of acetone solvent, forming stock solutions of 2000 ppm test compound. The stock solutions were diluted 10× with 0.025% Tween 20 in H2O (diluents) to obtain the solution at 200 ppm test compound. A hand-held aspirator-type sprayer was used for spraying a solution to both sides of cotton leaves until runoff. Reference plants (solvent check) were sprayed with the diluent only containing 10% by volume of acetone solvent. Treated plants were held in a holding room for 9 days at approximately 25° C. and ambient relative humidity (RH) prior to grading. Evaluation was conducted by counting the number of live 3-4 nymph stage per plant under a microscope. Percent control was measured by using Abbott's correction formula (W. S. Abbott, “A Method of Computing the Effectiveness of an Insecticide,” J. Econ. Entomol. 18 (1925), pp. 265-267) as follows. Corrected % Control=100*(X−Y)/X
X=No. of live nymphs on solvent check plants and
Y=No. of live nymphs on treated plants.
as §1

SMILES	mortality at 200 ppm [1] [%]	mortality at 200 ppm [2] [%]
CCN(C(=O)CC[S+]([O-])CCC(F)(F)F)c1cn(-c2cc(F)c[n+]([O-])c2)nc1Cl (stereo not shown) [Compound P37, 3-(3-Chloro-4-(N-ethyl-3-((3,3,3-trilluoropropyl)sulfinyl)propanamido)-1H-pyrazol-1-yl)-5-fluoropyridine 1-oxide]	80 to 100	80 to 100
C#CCN(C(=O)CCSCCC(F)(F)F)c1cn(-c2ccc[n+]([O-])c2)nc1Cl [Compound P9, 3-(3-Chloro-4-(N-(prop-2-yn-1-yl)-3-((3,3,3-trifluoropropyl)thio)propanamido)-1H-pyrazol-1-yl)pyridine 1-oxide]	80 to 100	80 to 100
CCN(C(=O)C(C)CSCCC(F)(F)F)c1cn(-c2cc(F)c[n+]([O-])c2)nc1Cl (stereo not shown) [FA2, 3-(3-Chloro-4-(N-ethyl-2-methyl-3-((3,3,3-trifluoropropyl)thio)propanamido)-1H-pyrazol-1-yl)-5-fluoropyridine 1-oxide]	80 to 100	80 to 100
C#CCN(C(=O)CC[S+]([O-])CCC(F)(F)F)c1cn(-c2ccc[n+]([O-])c2)nc1Cl (stereo not shown) [Compound P10, 3-(3-chloro-4-(N-(prop-2-yn-1-yl)-3-((3,3,3-trifluoropropyl)sulfinyl)propanamido)-1H-pyrazol-1-yl)pyridine 1-oxide]	80 to 100	80 to 100
CCN(C(=O)CCSCC1CC1(F)F)c1cn(-c2cc(F)c[n+]([O-])c2)nc1Cl (stereo not shown) [Compound P92, 3-(3-Chloro-4-(3-(((2,2-difluorocyclopropyl)methyl)thio)-N-ethylpropanamido)-1H-pyrazol-1-yl)-5-fluoropyridine 1-oxide]	80 to 100	80 to 100
CCN(C(=O)CC[S+]([O-])CCC(F)(F)F)c1cn(-c2ccc[n+]([O-])c2)nc1C (stereo not shown) [Compound P19, 3-(4-(N-Ethyl-3-((3,3,3-trilluoropropyl)sulfinyl)propanamido)-3-methyl-1H-pyrazol-1-yl)pyridine 1-oxide]	80 to 100	80 to 100
CCN(C(=O)CCSCC1CC1(F)F)c1cn(-c2ccc[n+]([O-])c2)nc1C (stereo not shown) [Compound P74, 3-(4-(3-(((2,2-Difluorocyclopropyl)methyl)thio)-N-ethylpropanamido)-3-methyl-1H-pyrazol-1-yl)pyridine 1-oxide]	80 to 100	80 to 100
CCN(C(=O)CCSCCCC(F)(F)F)c1cn(-c2ccc[n+]([O-])c2)nc1C [Compound P80, 3-(4-(N-Ethyl-3-((4,4,4-trifluorobutyl)thio)propanamido)-3-methyl-1H-pyrazol-1-yl)pyridine 1-oxide]	80 to 100	80 to 100
CCN(C(=O)CCSCCC(F)(F)F)c1cn(-c2cc(F)c[n+]([O-])c2)nc1Cl [Compound P36, 3-(3-Chloro-4-(N-ethyl-3-((3,3,3-trilluoropropyl)thio)propanamido)-1H-pyrazol-1-yl)-5-fluoropyridine 1-oxide]	80 to 100	80 to 100
CCN(C(=O)C(C)S(=O)(=O)CC(F)(F)F)c1cn(-c2ccc[n+]([O-])c2)nc1Cl (stereo not shown) [Compound F8, 3-(3-Chloro-4-(N-ethyl-2-((2,2,2-trifluoroethyl)sulfonyl)propanamido)-1H-pyrazol-1-yl)pyridine 1-oxide]	80 to 100	80 to 100
CN(C(=O)CC[S+]([O-])CCCC(F)(F)F)c1cn(-c2ccc[n+]([O-])c2)nc1Cl (stereo not shown) [Compound P63, 3-(3-Chloro-4-(N-methyl-3-((4,4,4-trifluorobutyl)sulfinyl)propanamido)-1H-pyrazol-1-yl)pyridine 1-oxide]	80 to 100	80 to 100
CC(C(=O)N(C)c1cn(-c2ccc[n+]([O-])c2)nc1Cl)S(C)(=O)=O (stereo not shown) [FA12, 3-(3-chloro-4-(N-methyl-2-(methylsulfonyl)propanamido)-1H-pyrazol-1-yl)pyridine 1-oxide]	80 to 100	80 to 100
CC(C[S+]([O-])CCC(F)(F)F)C(=O)N(C)c1cn(-c2ccc[n+]([O-])c2)nc1Cl (stereo not shown) [FA8, 3-(3-Chloro-4-(N,2-dimethyl-3-((3,3,3-trifluoropropyl)sulfinyl)propanamido)-1H-pyrazol-1-yl)pyridine 1-oxide]	80 to 100	80 to 100
CCN(C(=O)C(C)CS(C)(=O)=O)c1cn(-c2ccc[n+]([O-])c2)nc1C (stereo not shown) [Compound F4, 3-(4-(N-ethyl-2-methyl-3-(methylsulfonyl)propanamido)-3-methyl-1H-pyrazol-1-yl)pyridine-1-oxide]	80 to 100	80 to 100
CCN(C(=O)C(C)[S+]([O-])CC(F)(F)F)c1cn(-c2ccc[n+]([O-])c2)nc1Cl (stereo not shown) [Compound F7, 3-(3-Chloro-4-(N-ethyl-2-((2,2,2-trifluoroethyl)sulfinyl)propanamido)-1H-pyrazol-1-yl)pyridine 1-oxide]	80 to 100	0 to 80
CCNc1cn(-c2cc(F)c[n+]([O-])c2)nc1Cl [CA4, 3-(3-Chloro-4-(ethylamino)-1H-pyrazol-1-yl)-5-fluoropyridine 1-oxide]	0 to 80	0 to 80
C#CCN(C(=O)CC[S+]([O-])CC1CC1(F)F)c1cn(-c2ccc[n+]([O-])c2)nc1Cl (stereo not shown) [Compound P66, 3-(3-Chloro-4-(3-(((2,2-difluorocyclopropyl)methyl)sulfinyl)-N-(prop-2-yn-1-yl)propanamido)-1H-pyrazol-1-yl)pyridine 1-oxide]	80 to 100	80 to 100
CCN(C(=O)CC[S+]([O-])CCCC(F)(F)F)c1cn(-c2cc(F)c[n+]([O-])c2)nc1Cl (stereo not shown) [Compound P99, 3-(3-Chloro-4-(N-ethyl-3-((4,4,4-trilluorobutyl)sulfinyl)propanamido)-1H-pyrazol-1-yl)-5-fluoropyridine 1-oxide]	80 to 100	80 to 100
CC(CSCCC(F)(F)F)C(=O)N(C)c1cn(-c2ccc[n+]([O-])c2)nc1Cl (stereo not shown) [FA5, 3-(3-Chloro-4-(N,2-dimethyl-3-((3,3,3-trifluoropropyl)thio)propanamido)-1H-pyrazol-1-yl)pyridine 1-oxide]	80 to 100	80 to 100
CCN(C(=O)CCSCC1CC1(F)F)c1cn(-c2ccc[n+]([O-])c2)nc1Cl (stereo not shown) [Compound P48, 3-(3-Chloro-4-(3-(((2,2-difluorocyclopropyl)methyl)thio)-N-ethylpropanamido)-1H-pyrazol-1-yl)pyridine 1-oxide]	80 to 100	80 to 100
CCN(C(=O)CCSCC(F)(F)F)c1cn(-c2ccc[n+]([O-])c2)nc1Cl [Compound P50, 3-(3-chloro-4-(N-ethyl-3-((2,2,2-trifluoroethyl)thio)propanamido)-1H-pyrazol-1-yl)pyridine 1-oxide]	80 to 100	80 to 100
CCN(C(=O)CCSCCCC(F)(F)F)c1cn(-c2ccc[n+]([O-])c2)nc1Cl [Compound P53, 3-(3-Chloro-4-(N-ethyl-3-((4,4,4-trifluorobutyl)thio)propanamido)-1H-pyrazol-1-yl)pyridine 1-oxide]	80 to 100	80 to 100
C#CCN(C(=O)CC[S+]([O-])CCCC(F)(F)F)c1cn(-c2ccc[n+]([O-])c2)nc1Cl (stereo not shown) [Compound P72, 3-(3-Chloro-4-(N-(prop-2-yn-1-yl)-3-((4,4,4-trifluorobutyl)sulfinyl)propanamido)-1H-pyrazol-1-yl)pyridine 1-oxide]	80 to 100	80 to 100
CN(C(=O)CCSCCC(F)(F)F)c1cn(-c2ccc[n+]([O-])c2)nc1Cl [Compound P1, 3-(3-chloro-4-(N-methyl-3-((3,3,3-trifluoropropyl)thio)propanamido)-1H-pyrazol-1-yl)pyridine 1-oxide]	80 to 100	80 to 100
CCN(C(=O)CC[S+](C)[O-])c1cn(-c2ccc[n+]([O-])c2)nc1Cl (stereo not shown) [Compound F9, 3-(3-Chloro-4-(N-ethyl-3-(methylsulfinyl)propanamido)-1H-pyrazol-1-yl) pyridine 1-oxide]	80 to 100	80 to 100
CCN(C(=O)CCS(=O)(=O)CC1CC1(F)F)c1cn(-c2ccc[n+]([O-])c2)nc1Cl (stereo not shown) [Compound F11]	80 to 100	80 to 100
